According to patent US20250361217A1, “FATTY ACID COMPOUNDS” (University of Pittsburgh - Of the Commonwealth System of …, priority 2022, published 2025):

Columns and labels:
[1] = system: HFD model in C57BL/6J mice; experiment: Glucose tolerance test (GTT) in HFD NAFLD mouse model; format: in vivo
Description: (§1) Male C57BL/6J mice were purchased from Jackson Laboratory (Bar Harbor, ME, USA). Mice were acclimated for a week before being randomized to receive either a low-fat diet (LFD) or a high-fat diet (HFD) purchased from Research Diets (New Brunswick, NJ, USA). Obesity was induced by the HFD (D12492, with 60% of the adjusted calories derived from fat) for 16 weeks beginning at age of 8 weeks. Age-matched controls were maintained on a LFD (D12450J, matching the sucrose level of D12492). While maintaining the diet, mice under HFD were divided into 4 groups (n=8 per group) and were treated every 2 days by oral gavage for 7 weeks with 100 μl of 11D3 (50 mg/kg), 11U3 (50 mg/kg), or 11U3-2M (50 mg/kg) formulated in a solution of 2:1 of polyethylene glycol (Fisher Scientific, PEG400 #p167-1) and saline, containing 1.5% of octanoic acid (TCI, #00027). Control groups received 100 μl of PEG400/saline/octanoic acid as the vehicle (Veh). LFD mice were divided into 2 groups (n=8 per group) and treated with veh or 11D3 (50 mg/kg) to detect any effect of natural FuFA in LFD. Mice were grouped to start at the same weight mean before starting the treatment. During and before gavage treatment, mice were fed ad libitum and given free access to water. Food intake, water consumption, and mouse weight were monitored every week. At 20 weeks (4 weeks of treatment), a glucose tolerance test (GTT) was performed on all cohorts. After 2 weeks of recovery (22 weeks), a whole-body composition was performed using EchoMRI™-100H. At the end of the 23 weeks study, mice were euthanized with isoflurane followed by laparotomy. The blood was collected, and mice were perfused using 0.9% NaCl. Organs were harvested and snap-frozen in liquid nitrogen gas and stored at −80° C. for further analysis. The Cellerusher (Cell Crusher, Schull, Ireland) tissue pulverizer was used to reduce frozen tissues to a fine, easily recoverable powder using dry ice. For immunohistochemistry, the same liver lobe for every mouse was fixed in Formalin 10% (Fisher Chemical, #SF98-4) for 48h, followed by 75% ethanol baths before paraffin embedding.
GTT was performed on mice fasted for 5h. Mice were injected intraperitoneally with filter-sterilized 1.5 g/kg glucose in 0.9% NaCl. Blood glucose levels were measured using a hand-held glucometer (Accu-Chek Aviva, Roche Diagnostics, Indianapolis, IN, USA) at 0, 20, 40, 60, 90, and 120 min.

[2] = system: HFD model in C57BL/6J mice; experiment: Plasma insulin, metabolic hormones, AST/ALT, TNF-α in HFD mice; format: in vivo
Description: as §1
After collection, red blood cells and plasma were separated by centrifugation for 5 min at 7500 g at 4° C., aliquoted, and stored at −80° C. Insulin levels were measured by ELISA (Invitrogen, #EMINS) using 50 μl of plasma as per the manufacturer's instructions. Aspartate aminotransferase (AST) and alanine aminotransferase (ALT) levels were both measured using 5 μl of plasma with ELISA (Abcam, #ab263882 and #ab282882, respectively). Metabolic hormones were determined using Luminex xMAP technology (Milliplex mouse metabolic hormone expanded panel #MMHE-44K, Millipore, Burlington, MA, USA). The multiplex metabolic hormones plate was measured as per the manufacturer's instructions.

[3] = system: HFD model in C57BL/6J mice; experiment: Liver histology (H&E) scores of steatosis, ballooning, inflammation in HFD mice; format: in vivo; settings: 50 mg/kg
Description: Male C57BL/6J mice were purchased from Jackson Laboratory (Bar Harbor, ME, USA). Mice were acclimated for a week before being randomized to receive either a low-fat diet (LFD) or a high-fat diet (HFD) purchased from Research Diets (New Brunswick, NJ, USA). Obesity was induced by the HFD (D12492, with 60% of the adjusted calories derived from fat) for 16 weeks beginning at age of 8 weeks. Age-matched controls were maintained on a LFD (D12450J, matching the sucrose level of D12492). While maintaining the diet, mice under HFD were divided into 4 groups (n=8 per group) and were treated every 2 days by oral gavage for 7 weeks with 100 μl of 11D3 (50 mg/kg), 11U3 (50 mg/kg), or 11U3-2M (50 mg/kg) formulated in a solution of 2:1 of polyethylene glycol (Fisher Scientific, PEG400 #p167-1) and saline, containing 1.5% of octanoic acid (TCI, #00027). Control groups received 100 μl of PEG400/saline/octanoic acid as the vehicle (Veh). LFD mice were divided into 2 groups (n=8 per group) and treated with veh or 11D3 (50 mg/kg) to detect any effect of natural FuFA in LFD. […] Food intake, water consumption, and mouse weight were monitored every week. […]
The fixed Liver tissues embedded in paraffin were cut into 4 μm sections. […] Quantifications and scores of liver steatosis, ballooning, and inflammation were performed blindly by a pathologist based on 3 parameters—steatosis, inflammation, hepatocyte degeneration.

[4] = system: liver gene expression; experiment: RNA-Sequencing of livers with IPA pathway analysis; format: in vivo, mice
Method: Bioinformatics and Biostatistics Analyses on RNA Sequencing Data Transcriptome sequencing was performed on mice samples from each group with four replicates per condition. Quality control was first performed on the raw sequencing data by tool FastQC. Then low-quality reads and adapter sequences were trimmed out by tool Trimmomatic. After pre-processing, the surviving reads were aligned into mouse reference genome mm10 by STAR aligner. Gene counts per gene per sample were quantified by function—quantMode GeneCounts supported by the STAR aligner. Gene expression normalization was performed by R package DEseq2.
Given the gene expression profile, differential expression analyses were performed based on gene counts by DEseq2 package. Five pairwise comparisons were analyzed: LFD+Veh vs LFD+11D3, HFD+Veh vs HFD+11D3, HFD+Veh vs HFD+11U3, HFD+Veh vs HFD+11U3-2M and LFD+Veh vs HFD+Veh. Differentially expressed genes (DEGs) were defined by FDR=5% and absolute fold-change equal to or greater than 1.5. For the downstream analysis, Ingenuity Pathways Analysis (IPA) was employed to perform pathway enrichment analysis on the DEGs. Significant pathways were defined by FDR=5%. Regulation directions were measured by Z-scores, where a positive Z-score indicates activation of the pathway and a negative Z-score means inhibition, while some pathways show out unknown or mix of regulation directions.

[5] = system: liver gene expression; experiment: RT-qPCR of liver genes; format: in vivo, mice; settings: liver RT-qPCR vs HFD+veh
Method: Total RNA was extracted using 50 mg of frozen liver powder. The powder was homogenized in 1 mL of TRIzol solution (Invitrogen, #15-596-026) and 200 μl of chloroform, shaken vigorously for 15 seconds, and incubate at RT for 2-3 min. Lysates were centrifuged at 12000 g for 15 min at 4° C. The upper aqueous phase was transferred in a new ice-cold tube and diluted with 500 μl of ice-cold isopropyl alcohol and incubate at RT for 10 min. Tubes were centrifuged at 12000 g for 10 min at 4° C. The RNA pellet was washed twice using ice-cold 75% ethanol and centrifugation for 5 min at 7500 g at 4° C. The RNA pellet was dissolved in RNase-free H2O and the concentration was measured using Nanodrop 2000 (Thermo Fisher Scientific). […] The RNA sample (1 μg) was subjected to reverse transcription with the iScript cDNA synthesis kit. The TaqMan gene expression assays-on-demand system (Applied Biosystems, Foster City, CA, USA) was used for gene expression assessment by quantitative PCR (qPCR) using GAPDH as housekeeping gene using the comparative Ct method.

## CCCc1ccc(CCCCCCCCCC(C)(C)C(=O)O)o1 [11U3-2M, 2,2-Dimethyl-11-(5-propylfuran-2-yl)undecanoic acid]
[1]; 50 mg/kg gavage every 2 days, after 4 weeks of treatment
  blood glucose clearance measured by GTT compared to veh: significantly improved
[1]; 50 mg/kg, 4 weeks
  decrease in glucose area under the curve from 0 to 120 min vs veh: 24%
  fasting blood glucose: trend in decreased glucose
[1]; 20 min time point, 50 mg/kg, 4 weeks
  less glucose in GTT vs veh: 18%
[1]; 40 min time point, 50 mg/kg, 4 weeks
  less glucose in GTT vs veh: 26%
[1]; 60 min time point, 50 mg/kg, 4 weeks
  less glucose in GTT vs veh: 22%
[2]; 50 mg/kg
  lower insulin plasma level compared to veh (ELISA): 68%
  plasma level of AST: significant reduction
  plasma level of TNF-α: significant reduction
[2]; 50 mg/kg, milliplex
  lower plasma C-peptide 2 compared to veh: 43%
  lower plasma gastric inhibitory polypeptide (GIP) compared to veh: 36%
[2]; FIG. 3D legend
  liver enzyme ALT: improving liver enzymes (AST and ALT)
[3]
  ballooning degeneration of hepatocytes vs HFD+veh: significantly alleviated
  liver steatosis vs HFD+veh: significantly alleviated
[4]; liver RNA-Seq DEGs vs HFD+veh
  activated pathways (Ingenuity Pathway Analysis): FA β-oxidation was the most activated pathway
[4]; liver RNA-Seq vs HFD+veh
  LncRNA GM10804 downregulated: 5 fold
  LncRNA GM15441 increased: 137 fold
  increase in PDK4 gene: 7 fold
[5]
  LncRNA GM10804 decreased: 3.3 fold
  LncRNA GM15441 increased: 320 fold
  PDK4 increase: 9.3 fold
